Test results published in US9062040B2 (priority 2009, dated 2015).
Read-outs that look alike come from different tables or passages of the source.

Experiments:
Phytophthora infestans [1] = format: in vivo; conditions: Table E
[2] = test system: Pseudoperonospora cubensis; experiment: Test J: cucumber downy mildew, spray before inoculation, cucumber seedlings, mixtures with Colby expected values; format: in vivo; conditions: Table C
Description: General protocol for preparing test compositions for Tests I-K: Amisulbrom was formulated and ametoctradin was obtained as unformulated, technical-grade materials. Compound 1 were formulated as an oil dispersion containing a mixture of POE (polyoxyethylene) 40 sorbitol hexaoleate, POE 20 sorbitan trioleate, and alkyl-peg resin surfactants in a liquid carrier consisting of a distilled C18 fatty acid methyl ester. Ametoctradin was first dissolved in acetone and then suspended at the desired concentration (in ppm) in acetone and purified water (50/50 mix by volume) containing 250 ppm of the surfactant Trem® 014 (polyhydric alcohol esters). Amisulbrom was dispersed in sufficient water to give the desired concentration, and neither organic solvent nor surfactant was added to the suspension. The resulting test mixtures were then used in Tests I-K. Spraying a 200 ppm test mixture to the point of run-off on the test plants was the equivalent of a rate of 800 g/ha. The tests were replicated three times and the results reported as the mean average of the three replicates.
The presence of a synergistic effect between two active ingredients was established with the aid of the Colby equation (see Colby, S. R. “Calculating Synergistic and Antagonistic Responses of Herbicide Combinations”, Weeds, (1967), 15, 20-22):
Using the method of Colby, the presence of a synergistic interaction between two active ingredients is established by first calculating the predicted activity, p, of the mixture based on activities of the two components applied alone. If p is lower than the experimentally established effect, synergism has occurred. In the equation above, A is the fungicidal activity in percentage control of one component applied alone at rate x. The B term is the fungicidal activity in percentage control of the second component applied at rate y. The equation estimates p, the expected fungicidal activity of the mixture of A at rate x with B at rate y if their effects are strictly additive and no interaction has occurred.
The test mixture was sprayed to the point of run-off on cucumber seedlings. The following day the seedlings were inoculated with a spore suspension of Pseudoperonospora cubensis (the causal agent of cucumber downy mildew) and incubated in saturated atmosphere at 20° C. for 24 h, and moved to a growth chamber at 20° C. for 6 days, after which time disease ratings were made.
Results for Tests I to K are given in Tables C-E. Each table corresponds to a set of evaluations performed together at the same time. In each table, a rating of 100 indicates 100% disease control and a rating of 0 indicates no disease control (relative to the controls). Columns labeled “Obsd” indicate the average of results observed from three replications. Columns labeled “Exptd” indicate the expected value for each treatment mixture using the Colby equation.

Phytophthora infestans [3] = format: in vivo
[4] = Stability experiments for solid forms of Compound 1 (temperature and humidity, XRPD); format: physicochemical
Description: The physical stability of polymorph Form A was characterized. […] Samples of Form A exposed to 53, 75, and 85% relative humidity at ambient temperature (10 days) were also unchanged, as determined by XRPD.
The physical stability of polymorph Form B was characterized.
The physical stability of the amorphous material was characterized.

[5] = Relative stability experiments for polymorph Form A and Form B (DSC heat of fusion rule, competitive interconversion); format: physicochemical
Protocol: Differential scanning calorimetry was performed on a Thermal Analysis Q2000 Differential Scanning Calorimeter. A sample (2.3 mg) was placed in an aluminum DSC pan. The sample cell was heated under a nitrogen purge at 10° C./minute. Indium metal was used as the calibration standard.
The relative stability of polymorphic Forms A and B of Compound 1 was characterized with Differential Scanning Calorimetry and a competitive interconversion experiment. Phase transitions of solids can be thermodynamically reversible or irreversible. Crystalline polymorphs which transform reversibly at a specific transition temperature (Ttr) are called enantiotropic polymorphs. If the crystalline polymorphs are not interconvertable, the system is monotropic (i.e. one polymorph is thermodynamically stable relative to the other over the entire temperature range up to melting). The relationship between forms can be determined by the application of the heat of fusion rule (Burger, A.; Ramberger, R. Mikrochim. Acta [Wein], 1979 II, 259-271). The rule states that if the higher melting form has the lower heat of fusion, then the two forms are enantiotropic. Otherwise, they are monotropic.
To support this conclusion, a competitive interconversion experiment between polymorph Forms A and B was performed in ethanol at room temperature. […]

[6] = Table C, component (b) alone 0.08 ppm
[7] = Table C, component (b) alone 0.4 ppm
[8] = Table C, component (b) alone 2 ppm
[9] = Table C, component (b) alone 10 ppm
[10] = Table C, component (b) alone 40 ppm
[11] = Table D, component (b) alone 0.08 ppm
[12] = Table D, component (b) alone 0.4 ppm
[13] = Table D, component (b) alone 2 ppm
[14] = Table D, component (b) alone 10 ppm

Row | Compound | stability of the pure solid form (summary of Characterization Example 4) [4] | Test K Obsd (Phytophthora infestans [1]; component (b) alone 0.4 ppm) [%] | Test K Obsd (Phytophthora infestans [1]; component (b) alone 2 ppm) [%] | Test K Obsd (Phytophthora infestans [1]; component (b) alone 10 ppm) [%] | Test K Obsd (Phytophthora infestans [1]; component (b) alone 40 ppm) [%] | Test K Obsd (Phytophthora infestans [1]; component (b) alone 200 ppm) [%] | Test J Obsd ([2]; component (b) alone 0.08 ppm) [%] | Test J Obsd ([2]; component (b) alone 0.4 ppm) [%] | Test J Obsd ([2]; component (b) alone 2 ppm) [%] | Test J Obsd ([2]; component (b) alone 10 ppm) [%] | Test J Obsd ([2]; component (b) alone 40 ppm) [%] | Test I Obsd (Phytophthora infestans [3]; [6]) [%] | Test I Obsd (Phytophthora infestans [3]; [7]) [%] | Test I Obsd (Phytophthora infestans [3]; [8]) [%] | Test I Obsd (Phytophthora infestans [3]; [9]) [%] | Test I Obsd (Phytophthora infestans [3]; [10]) [%] | Test I Obsd (Phytophthora infestans [3]; [11]) [%] | Test I Obsd (Phytophthora infestans [3]; [12]) [%] | Test I Obsd (Phytophthora infestans [3]; [13]) [%] | Test I Obsd (Phytophthora infestans [3]; [14]) [%] | other results
1 | Cc1cc(C(F)(F)F)nn1CC(=O)N1CCC(c2nc(C3=NOC(c4c(F)cccc4F)C3)cs2)CC1 (racemic) [Compound 1, 1-[4-[4-[5-(2,6-difluorophenyl)-4,5-dihydro-3-isoxazolyl]-2-thiazolyl]-1-piperidinyl]-2-[5-methyl-3-(trifluoromethyl)-1H-pyrazol-1-yl]ethanone] |  |  |  |  |  |  |  |  |  |  |  |  |  |  |  |  |  |  |  |  | Test K Obsd (Phytophthora infestans [1]; Compound 1 alone 0.001 ppm): 0%; Test K Obsd (Phytophthora infestans [1]; Compound 1 alone 0.01 ppm): 17%; Test K Obsd (Phytophthora infestans [1]; Compound 1 alone 0.1 ppm): 80%; Test K Obsd (Phytophthora infestans [1]; Compound 1 alone 1 ppm): 99%; Test K Obsd (Phytophthora infestans [1]; Compound 1 alone 10 ppm): 100%; Test J Obsd ([2]; Compound 1 alone 0.00001 ppm): 17%; Test J Obsd ([2]; Compound 1 alone 0.0001 ppm): 47%; Test J Obsd ([2]; Compound 1 alone 0.001 ppm): 40%; Test J Obsd ([2]; Compound 1 alone 0.01 ppm): 94%; Test J Obsd ([2]; Compound 1 alone 0.1 ppm): 100%; Test I Obsd (Phytophthora infestans [3]; Table C, Compound 1 alone 0.00001 ppm): 39%; Test I Obsd (Phytophthora infestans [3]; Table C, Compound 1 alone 0.0001 ppm): 63%; Test I Obsd (Phytophthora infestans [3]; Table C, Compound 1 alone 0.001 ppm): 72%; Test I Obsd (Phytophthora infestans [3]; Table C, Compound 1 alone 0.01 ppm): 100%; Test I Obsd (Phytophthora infestans [3]; Table C, Compound 1 alone 0.1 ppm): 100%; Test I Obsd (Phytophthora infestans [3]; Table D, Compound 1 alone 0.00001 ppm): 0%; Test I Obsd (Phytophthora infestans [3]; Table D, Compound 1 alone 0.0001 ppm): 0%; Test I Obsd (Phytophthora infestans [3]; Table D, Compound 1 alone 0.001 ppm): 80%; Test I Obsd (Phytophthora infestans [3]; Table D, Compound 1 alone 0.01 ppm): 93%; Test I Obsd (Phytophthora infestans [3]; Table D, Compound 1 alone 0.1 ppm): 100%
2 | Cc1cc(C(F)(F)F)nn1CC(=O)N1CCC(c2nc(C3=NOC(c4c(F)cccc4F)C3)cs2)CC1 (racemic) [polymorph Form A, 1-[4-[4-[5-(2,6-difluorophenyl)-4,5-dihydro-3-isoxazolyl]-2-thiazolyl]-1-piperidinyl]-2-[5-methyl-3-(trifluoromethyl)-1H-pyrazol-1-yl]ethanone] | physically stable and non-hydrated |  |  |  |  |  |  |  |  |  |  |  |  |  |  |  |  |  |  |  | physical stability by XRPD ([4]; exposed to 53, 75, and 85% relative humidity at ambient temperature (10 days)): unchanged; physical stability by XRPD ([4]; maintained at 40, 60, and 80° C. for 4 days): remained unchanged
3 | Cc1cc(C(F)(F)F)nn1CC(=O)N1CCC(c2nc(C3=NOC(c4c(F)cccc4F)C3)cs2)CC1 (racemic) [polymorph Form B, 1-[4-[4-[5-(2,6-difluorophenyl)-4,5-dihydro-3-isoxazolyl]-2-thiazolyl]-1-piperidinyl]-2-[5-methyl-3-(trifluoromethyl)-1H-pyrazol-1-yl]ethanone] |  |  |  |  |  |  |  |  |  |  |  |  |  |  |  |  |  |  |  |  | physical stability by XRPD ([4]; exposed to 85% relative humidity at ambient temperature (10 days)): unchanged; physical stability by XRPD ([4]; maintained at 40° C. and 25° C. for 4 days): remained unchanged; relative stability by heat of fusion rule from DSC data ([5]; DSC data of Characterization Example 3, forms monotropically related): most stable form throughout the temperature range up to the melt; relative stability, competitive interconversion experiment ([5]; equal amounts of Forms A and B in saturated ethanol, room temperature, stirred 4 days, solids identified by XRPD): more stable than polymorph Form A
4 | CCCCCCCCc1c(CC)nc2ncnn2c1N [Ametoctradin, ametoctradin] |  | 0 | 0 | 0 | 0 | 0 | 0 | 0 | 0 | 26 | 95 | 8 | 23 | 63 | 83 | 83 | 9 | 0 | 0 | 94 | Test I Obsd (Phytophthora infestans [3]; Table D, component (b) alone 40 ppm): 93%
5 | Cc1c(Br)c2ccc(F)cc2n1S(=O)(=O)c1ncn(S(=O)(=O)N(C)C)n1 [Amisulbrom, amisulbrom] |  | 0 | 0 | 0 | 0 | 0 | 0 | 0 | 95 | 100 | 100 | 57 | 52 | 82 | 100 | 100 | 9 | 63 | 85 | 86 | Test I Obsd (Phytophthora infestans [3]; Table D, component (b) alone 0.016 ppm): 0%
6 | Cc1cc(C(F)(F)F)nn1CC(=O)N1CCC(c2nc(C3=NOC(c4c(F)cccc4F)C3)cs2)CC1 (stereo not drawn) [Amorphous Compound 1, 1-[4-[4-[5-(2,6-difluorophenyl)-4,5-dihydro-3-isoxazolyl]-2-thiazolyl]-1-piperidinyl]-2-[5-methyl-3-(trifluoromethyl)-1H-pyrazol-1-yl]ethanone] | stable and non-hydrated |  |  |  |  |  |  |  |  |  |  |  |  |  |  |  |  |  |  |  | physical stability by XRPD ([4]; elevated temperatures (60, 80 and 100° C.) and humidities (75 and 85% relative humidity) for 10-12 days): remained unchanged
